# Reference: ChEMBL document CHEMBL6071157, “Improved N-phenylpyrrolamide inhibitors of DNA gyrase as antibacterial agents for high-priority bacterial strains” (Eur J Med Chem, 2024)
# Target: DNA gyrase (Escherichia coli, UniProt P0AES4+P0AES6)
# Assay: Inhibition of Escherichia coli DNA gyrase by supercoiling plate assay
# Type: protein-complex assay
# Settings: not given
row,Compound,IC50 [nM]
1,Cc1[nH]c(C(=O)Nc2ccc(-c3noc(=O)[nH]3)cc2N2CCC(N)CC2)c(Cl)c1Cl.Cl,0.253
2,Cc1[nH]c(C(=O)Nc2ccc(-n3nn[nH]c3=O)cc2N2CCC(N)CC2)c(Cl)c1Cl.Cl,3.96
3,Cc1[nH]c(C(=O)Nc2ccc(-c3noc(=O)[nH]3)cc2N2CCCC(N)C2)c(Cl)c1Cl.Cl (stereo not given),2.49
4,Cc1[nH]c(C(=O)Nc2ccc(C(=O)NS(C)(=O)=O)cc2N2CCOCC2)c(Cl)c1Cl,243

# Target: DNA gyrase (Staphylococcus aureus, UniProt P0A0K8+P20831)
# Assay: Inhibition of Staphylococcus aureus DNA gyrase by supercoiling plate assay
# Type: protein-complex assay
# Settings: not given
# DNA gyrase (Staphylococcus aureus, UniProt P0A0K8+P20831), sequence (P0A0K8 whole entry): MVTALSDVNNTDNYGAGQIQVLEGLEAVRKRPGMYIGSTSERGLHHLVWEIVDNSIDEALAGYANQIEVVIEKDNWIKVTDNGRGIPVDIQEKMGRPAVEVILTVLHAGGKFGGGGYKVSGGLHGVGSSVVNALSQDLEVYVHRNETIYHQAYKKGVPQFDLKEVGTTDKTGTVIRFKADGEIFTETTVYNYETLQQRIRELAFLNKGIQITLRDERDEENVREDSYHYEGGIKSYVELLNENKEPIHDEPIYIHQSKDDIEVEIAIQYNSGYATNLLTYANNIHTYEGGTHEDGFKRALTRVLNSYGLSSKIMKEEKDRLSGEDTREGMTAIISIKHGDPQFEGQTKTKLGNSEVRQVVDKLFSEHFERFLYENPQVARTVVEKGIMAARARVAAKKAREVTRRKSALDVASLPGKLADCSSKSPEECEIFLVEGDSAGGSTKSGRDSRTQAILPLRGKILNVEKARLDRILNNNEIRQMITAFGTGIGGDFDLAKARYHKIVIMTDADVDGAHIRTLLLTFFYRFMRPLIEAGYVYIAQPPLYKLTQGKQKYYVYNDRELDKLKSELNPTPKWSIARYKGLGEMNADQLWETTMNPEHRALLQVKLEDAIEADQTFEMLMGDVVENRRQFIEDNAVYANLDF
# DNA gyrase (Staphylococcus aureus, UniProt P0A0K8+P20831), sequence (P20831 whole entry): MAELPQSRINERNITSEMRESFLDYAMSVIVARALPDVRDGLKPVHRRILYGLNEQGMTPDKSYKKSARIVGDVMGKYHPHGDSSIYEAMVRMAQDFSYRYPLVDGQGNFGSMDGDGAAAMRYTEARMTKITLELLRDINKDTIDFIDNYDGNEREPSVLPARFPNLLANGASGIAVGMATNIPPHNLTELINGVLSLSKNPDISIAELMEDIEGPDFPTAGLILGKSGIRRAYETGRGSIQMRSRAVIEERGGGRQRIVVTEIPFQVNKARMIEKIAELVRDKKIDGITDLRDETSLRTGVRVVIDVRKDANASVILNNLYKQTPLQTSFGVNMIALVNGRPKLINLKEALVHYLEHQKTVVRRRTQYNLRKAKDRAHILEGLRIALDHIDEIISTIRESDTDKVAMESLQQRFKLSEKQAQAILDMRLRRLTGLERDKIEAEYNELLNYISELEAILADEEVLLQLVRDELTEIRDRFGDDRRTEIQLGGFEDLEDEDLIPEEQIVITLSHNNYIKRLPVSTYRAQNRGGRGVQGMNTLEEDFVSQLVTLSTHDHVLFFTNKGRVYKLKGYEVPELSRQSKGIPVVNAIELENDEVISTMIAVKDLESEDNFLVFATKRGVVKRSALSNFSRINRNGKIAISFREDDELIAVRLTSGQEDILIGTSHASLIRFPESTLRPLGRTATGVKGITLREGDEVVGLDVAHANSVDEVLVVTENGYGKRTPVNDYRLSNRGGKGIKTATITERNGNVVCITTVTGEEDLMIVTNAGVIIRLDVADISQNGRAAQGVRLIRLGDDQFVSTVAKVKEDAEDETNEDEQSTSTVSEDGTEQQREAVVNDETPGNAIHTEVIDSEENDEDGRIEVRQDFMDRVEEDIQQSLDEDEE
row,Compound,IC50 [nM]
1,Cc1[nH]c(C(=O)Nc2ccc(-n3nn[nH]c3=O)cc2N2CCC(N)CC2)c(Cl)c1Cl.Cl,216
2,Cc1[nH]c(C(=O)Nc2ccc(-c3noc(=O)[nH]3)cc2N2CCCC(N)C2)c(Cl)c1Cl.Cl (stereo not given),55.8

# Tested on: not listed separately
# Assay: Inhibition of Escherichia coli DNA topoisomerase-IV relaxation plate assay
# Settings: not given
row,Compound,IC50 [nM]
1,Cc1[nH]c(C(=O)Nc2ccc(-c3noc(=O)[nH]3)cc2N2CCC(N)CC2)c(Cl)c1Cl.Cl,187
2,Cc1[nH]c(C(=O)Nc2ccc(-n3nn[nH]c3=O)cc2N2CCC(N)CC2)c(Cl)c1Cl.Cl,11500
3,Cc1[nH]c(C(=O)Nc2ccc(-c3noc(=O)[nH]3)cc2N2CCCC(N)C2)c(Cl)c1Cl.Cl (stereo not given),145

# Target: T1, DNA topoisomerase 2-alpha (Homo sapiens, UniProt P11388)
# Assay: (§1) Inhibition of human DNA topoisomerase 2-alpha using linear pBR322 as substrate assessed as conversion of NADH to NAD+ preincubated for 10 to 15 mins in presence of pyruvate kinase/lactate dehydrogenase mix followed by ATP addition and measured after 30 mins by ATPase assay
# Settings: not given
# T1 sequence (P11388 whole entry): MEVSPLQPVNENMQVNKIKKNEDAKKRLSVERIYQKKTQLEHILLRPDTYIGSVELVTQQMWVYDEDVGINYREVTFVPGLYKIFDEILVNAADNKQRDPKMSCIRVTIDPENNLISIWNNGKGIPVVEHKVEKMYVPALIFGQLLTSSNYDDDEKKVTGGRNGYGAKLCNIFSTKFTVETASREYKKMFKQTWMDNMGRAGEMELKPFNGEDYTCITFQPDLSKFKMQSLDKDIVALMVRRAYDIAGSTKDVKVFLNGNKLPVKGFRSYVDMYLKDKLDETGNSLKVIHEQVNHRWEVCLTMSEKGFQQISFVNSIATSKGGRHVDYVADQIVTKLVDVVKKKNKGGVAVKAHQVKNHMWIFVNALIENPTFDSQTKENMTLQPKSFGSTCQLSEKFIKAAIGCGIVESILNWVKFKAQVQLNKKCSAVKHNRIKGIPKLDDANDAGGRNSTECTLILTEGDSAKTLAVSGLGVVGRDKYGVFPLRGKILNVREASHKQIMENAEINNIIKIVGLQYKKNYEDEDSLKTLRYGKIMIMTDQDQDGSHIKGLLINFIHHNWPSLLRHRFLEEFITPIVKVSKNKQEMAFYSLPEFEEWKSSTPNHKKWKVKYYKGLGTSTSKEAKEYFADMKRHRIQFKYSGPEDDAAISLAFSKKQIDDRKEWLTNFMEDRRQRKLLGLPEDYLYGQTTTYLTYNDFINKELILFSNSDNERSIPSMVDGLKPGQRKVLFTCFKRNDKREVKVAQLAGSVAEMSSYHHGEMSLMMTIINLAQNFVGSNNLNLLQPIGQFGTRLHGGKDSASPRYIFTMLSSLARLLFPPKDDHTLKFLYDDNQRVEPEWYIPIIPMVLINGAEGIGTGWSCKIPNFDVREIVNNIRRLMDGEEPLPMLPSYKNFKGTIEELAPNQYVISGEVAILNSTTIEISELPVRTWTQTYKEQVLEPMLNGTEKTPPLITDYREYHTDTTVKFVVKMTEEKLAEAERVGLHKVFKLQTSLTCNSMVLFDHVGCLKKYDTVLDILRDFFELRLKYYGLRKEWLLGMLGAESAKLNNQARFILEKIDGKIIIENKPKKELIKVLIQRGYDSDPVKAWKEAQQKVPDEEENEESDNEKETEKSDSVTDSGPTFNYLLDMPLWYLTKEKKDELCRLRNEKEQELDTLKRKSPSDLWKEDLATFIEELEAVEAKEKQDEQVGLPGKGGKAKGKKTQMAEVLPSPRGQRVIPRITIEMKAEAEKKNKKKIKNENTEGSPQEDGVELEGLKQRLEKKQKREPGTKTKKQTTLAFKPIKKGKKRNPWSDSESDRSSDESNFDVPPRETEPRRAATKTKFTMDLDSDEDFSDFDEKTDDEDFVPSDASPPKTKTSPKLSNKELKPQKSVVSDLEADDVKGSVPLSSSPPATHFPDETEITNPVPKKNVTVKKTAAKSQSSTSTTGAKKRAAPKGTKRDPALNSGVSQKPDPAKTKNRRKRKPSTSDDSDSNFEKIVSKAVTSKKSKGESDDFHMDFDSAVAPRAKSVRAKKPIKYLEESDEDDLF
row,Compound,IC50 [nM]
1,Cc1[nH]c(C(=O)Nc2ccc(-c3noc(=O)[nH]3)cc2N2CCC(N)CC2)c(Cl)c1Cl.Cl,26200

# Tested on: Escherichia coli
# Assay: Inhibition of Escherichia coli DNA topoisomerase-IV assessed as residual activity at 10 uM by relaxation plate assay relative to control
# Settings: not given
row,Compound,Activity [%]
1,Cc1[nH]c(C(=O)Nc2ccc(C(=O)NS(C)(=O)=O)cc2N2CCOCC2)c(Cl)c1Cl,37

# Target: T1, DNA topoisomerase 2-alpha
# Assay: as §1, with “NAD+ by measuring residual activity at 100 uM” for “NAD+”, “assay relative to control” for “assay”
# Settings: time 40-55 min
row,Compound,Activity [%]
1,Cc1[nH]c(C(=O)Nc2ccc(-n3nn[nH]c3=O)cc2N2CCC(N)CC2)c(Cl)c1Cl.Cl,103
2,Cc1[nH]c(C(=O)Nc2ccc(-c3noc(=O)[nH]3)cc2N2CCCC(N)C2)c(Cl)c1Cl.Cl (stereo not given),91
3,Cc1[nH]c(C(=O)Nc2ccc(C(=O)NS(C)(=O)=O)cc2N2CCOCC2)c(Cl)c1Cl,94

# Tested on: Staphylococcus aureus
# Assay: Antibacterial activity against Staphylococcus aureus ATCC 29213 assessed as inhibition of bacterial growth by broth microdilution method
# Type: functional
# Settings: not given
row,Compound,MIC [µg/mL]
1,Cc1[nH]c(C(=O)Nc2ccc(-c3noc(=O)[nH]3)cc2N2CCC(N)CC2)c(Cl)c1Cl.Cl,64
2,Cc1[nH]c(C(=O)Nc2ccc(-n3nn[nH]c3=O)cc2N2CCC(N)CC2)c(Cl)c1Cl.Cl,> 32
3,Cc1[nH]c(C(=O)Nc2ccc(-c3noc(=O)[nH]3)cc2N2CCCC(N)C2)c(Cl)c1Cl.Cl (stereo not given),> 64

# Tested on: Staphylococcus aureus
# Assay: Antibacterial against methicillin resistant Staphylococcus aureus ATCC 43300 assessed as inhibition of bacterial growth by broth microdilution method
# Type: functional
# Settings: time 24 hrs
row,Compound,MIC [µg/mL]
1,Cc1[nH]c(C(=O)Nc2ccc(-c3noc(=O)[nH]3)cc2N2CCC(N)CC2)c(Cl)c1Cl.Cl,32
2,Cc1[nH]c(C(=O)Nc2ccc(-n3nn[nH]c3=O)cc2N2CCC(N)CC2)c(Cl)c1Cl.Cl,> 32
3,Cc1[nH]c(C(=O)Nc2ccc(-c3noc(=O)[nH]3)cc2N2CCCC(N)C2)c(Cl)c1Cl.Cl (stereo not given),> 64

# Tested on: Staphylococcus aureus
# Assay: Antibacterial against vancomycin-intermediate Staphylococcus aureus ATCC 700699 assessed as inhibition of bacterial growth by broth dilution method
# Type: functional
# Settings: not given
row,Compound,MIC [µg/mL]
1,Cc1[nH]c(C(=O)Nc2ccc(-c3noc(=O)[nH]3)cc2N2CCC(N)CC2)c(Cl)c1Cl.Cl,16
2,Cc1[nH]c(C(=O)Nc2ccc(-n3nn[nH]c3=O)cc2N2CCC(N)CC2)c(Cl)c1Cl.Cl,> 32
3,Cc1[nH]c(C(=O)Nc2ccc(-c3noc(=O)[nH]3)cc2N2CCCC(N)C2)c(Cl)c1Cl.Cl (stereo not given),> 64

# Tested on: Enterococcus faecalis
# Assay: Antibacterial activity against Enterococcus faecalis ATCC 29212 assessed as inhibition of bacterial growth by broth microdilution method
# Type: functional
# Settings: not given
row,Compound,MIC [µg/mL]
1,Cc1[nH]c(C(=O)Nc2ccc(-c3noc(=O)[nH]3)cc2N2CCC(N)CC2)c(Cl)c1Cl.Cl,32
2,Cc1[nH]c(C(=O)Nc2ccc(-n3nn[nH]c3=O)cc2N2CCC(N)CC2)c(Cl)c1Cl.Cl,> 32
3,Cc1[nH]c(C(=O)Nc2ccc(-c3noc(=O)[nH]3)cc2N2CCCC(N)C2)c(Cl)c1Cl.Cl (stereo not given),8

# Tested on: Enterococcus faecium
# Assay: Antibacterial activity against vancomycin-resistant Enterococcus faecium ATCC 700221 assessed as inhibition of bacterial growth by broth microdilution method
# Type: functional
# Settings: not given
row,Compound,MIC [µg/mL]
1,Cc1[nH]c(C(=O)Nc2ccc(-c3noc(=O)[nH]3)cc2N2CCC(N)CC2)c(Cl)c1Cl.Cl,32
2,Cc1[nH]c(C(=O)Nc2ccc(-n3nn[nH]c3=O)cc2N2CCC(N)CC2)c(Cl)c1Cl.Cl,> 32
3,Cc1[nH]c(C(=O)Nc2ccc(-c3noc(=O)[nH]3)cc2N2CCCC(N)C2)c(Cl)c1Cl.Cl (stereo not given),8

# Tested on: Escherichia coli
# Assay: Antibacterial activity against Escherichia coli ATCC 25922 assessed as inhibition of bacterial growth by broth microdilution method
# Type: functional
# Settings: not given
row,Compound,MIC [µg/mL]
1,Cc1[nH]c(C(=O)Nc2ccc(-c3noc(=O)[nH]3)cc2N2CCC(N)CC2)c(Cl)c1Cl.Cl,> 64
2,Cc1[nH]c(C(=O)Nc2ccc(-n3nn[nH]c3=O)cc2N2CCC(N)CC2)c(Cl)c1Cl.Cl,> 32
3,Cc1[nH]c(C(=O)Nc2ccc(-c3noc(=O)[nH]3)cc2N2CCCC(N)C2)c(Cl)c1Cl.Cl (stereo not given),> 64

# Tested on: Enterobacter cloacae
# Assay: Antibacterial activity against Enterobacter cloacae subsp. cloacae ATCC 13047 assessed as inhibition of bacterial growth by broth microdilution method
# Type: functional
# Settings: not given
row,Compound,MIC [µg/mL]
1,Cc1[nH]c(C(=O)Nc2ccc(-c3noc(=O)[nH]3)cc2N2CCC(N)CC2)c(Cl)c1Cl.Cl,> 64
2,Cc1[nH]c(C(=O)Nc2ccc(-n3nn[nH]c3=O)cc2N2CCC(N)CC2)c(Cl)c1Cl.Cl,> 32
3,Cc1[nH]c(C(=O)Nc2ccc(-c3noc(=O)[nH]3)cc2N2CCCC(N)C2)c(Cl)c1Cl.Cl (stereo not given),> 64

# Tested on: Pseudomonas aeruginosa
# Assay: Antibacterial activity against Pseudomonas aeruginosa ATCC 27853 assessed as inhibition of bacterial growth by broth microdilution metho
# Type: functional
# Settings: not given
row,Compound,MIC [µg/mL]
1,Cc1[nH]c(C(=O)Nc2ccc(-c3noc(=O)[nH]3)cc2N2CCC(N)CC2)c(Cl)c1Cl.Cl,> 64
2,Cc1[nH]c(C(=O)Nc2ccc(-n3nn[nH]c3=O)cc2N2CCC(N)CC2)c(Cl)c1Cl.Cl,> 32
3,Cc1[nH]c(C(=O)Nc2ccc(-c3noc(=O)[nH]3)cc2N2CCCC(N)C2)c(Cl)c1Cl.Cl (stereo not given),> 64

# Tested on: Klebsiella pneumoniae
# Assay: Antibacterial activity against Klebsiella pneumoniae ATCC 10031 assessed as inhibition of bacterial growth by broth microdilution method
# Type: functional
# Settings: not given
row,Compound,MIC [µg/mL]
1,Cc1[nH]c(C(=O)Nc2ccc(-c3noc(=O)[nH]3)cc2N2CCC(N)CC2)c(Cl)c1Cl.Cl,64
2,Cc1[nH]c(C(=O)Nc2ccc(-n3nn[nH]c3=O)cc2N2CCC(N)CC2)c(Cl)c1Cl.Cl,> 32
3,Cc1[nH]c(C(=O)Nc2ccc(-c3noc(=O)[nH]3)cc2N2CCCC(N)C2)c(Cl)c1Cl.Cl (stereo not given),16

# Tested on: Acinetobacter baumannii
# Assay: Antibacterial activity against Acinetobacter baumannii ATCC 17978 assessed as inhibition of bacterial growth by broth microdilution method
# Type: functional
# Settings: not given
row,Compound,MIC [µg/mL]
1,Cc1[nH]c(C(=O)Nc2ccc(-c3noc(=O)[nH]3)cc2N2CCC(N)CC2)c(Cl)c1Cl.Cl,> 64
2,Cc1[nH]c(C(=O)Nc2ccc(-n3nn[nH]c3=O)cc2N2CCC(N)CC2)c(Cl)c1Cl.Cl,> 32
3,Cc1[nH]c(C(=O)Nc2ccc(-c3noc(=O)[nH]3)cc2N2CCCC(N)C2)c(Cl)c1Cl.Cl (stereo not given),> 64

# Tested on: MCF7
# Assay: Cytotoxicity against human MCF7 cells assessed as cell viability at 50 uM incubated for 72 hrs by CellTiter 96 aqueous one solution reagent based MTS assay relative to control
# Type: functional
# Settings: read-out: Activity
row,Compound,viability at 50 µM [%]
1,Cc1[nH]c(C(=O)Nc2ccc(-c3noc(=O)[nH]3)cc2N2CCCC(N)C2)c(Cl)c1Cl.Cl (stereo not given),95
